In patent US20240391940A1, “FUSED RING-CONTAINING COMPOUND, APPLICATION THEREOF, AND COMPOSITION CONTAINING SAME” (GenEros Biopharma Ltd., priority 2020, published 2024):
Values joined by “and” are separate entries in the source; they are usually repeats but may differ in a detail not shown here. Equal entries are not always repeated.

Legend:
[1] = system: IMQ-induced psoriasis mouse model; assay: IMQ-induced psoriasis mouse model (PASI scoring); type: in vivo, Balb/c mice; parameters: key to skin thickening in psoriasis mice (score) / skin redness in psoriasis mice (score) / skin scaling in psoriasis mice (score): 0 = none to 4 = very severe, per sign; conditions: DEX 3 mpk PO QD
Description: Method: This experiment used a total of 19 mice. A natural skin observation control (n=1). 2 cm^2 of hair was shaved off the backs of […] on day 0, the stubble was removed with a mild depilatory cream, and the original skin was photographed. 62.5 mg of IMQ was applied to each of the mice. There was a mock group (n=6), a DEX (3 mg/kg, PO., qD) group (n=6), and a GEN1-284s (30 mg/kg, PO, qD) group (n=6). On the day of modeling, administration was performed in a volume of 100 μL/20 g body weight 4 h after IMQ application. The PASI scoring method was used to score the erythema, swelling and scaling on the skin of the mice. The experiment took a total of 6 days. The first day was set to day 0. IMQ application and administration were not performed on day 5. The mice were sacrificed with carbon dioxide at the end of the experiment.
The test animals were anesthetized with isoflurane. 2 cm^2 of hair was shaved off the backs of the mice, and the stubble was removed with a depilatory cream. IMQ application was performed for a total of 5 days, from day 0 to day 4. Scoring and IMQ application were performed every morning. Administration was performed in the afternoon
Desquamation (D): means epidermal cells flake off. The severity scores of skin lesions were as follows: • 0=none; this sign cannot be confirmed by careful observation • 1=mild; this sign can be confirmed but careful observation is required • 2=moderate; this sign is more visible and can be confirmed immediately • 3=severe; this sign is marked. • 4=very severe; this sign is very marked.
Induration I: 0—skin lesions are at the same level as normal skin; • 1—skin lesions are at slightly higher levels than normal skin surface; • 2—lesions moderately stick out and have round or slope-shaped borders; • 3—skin lesions are thick and markedly stick out; • 4—skin lesions are very thick and very markedly stick out.
Erythema E: • 0—no visible erythema; • 1—light red; • 2—red; • 3—dark red; • 4—the red is very dark

[2] = system: LPS-induced production of TNF-α; assay: LPS-induced TNF-α production in mice (plasma ELISA); type: in vivo; conditions: Balb/c mice; dexamethasone 3 mpk, LPS 1 mpk i.p. 0.5 h after administration, plasma 2 h after LPS
Description: Materials and method: A total of 18 mice were used in this experiment. The mice were divided into a MOCK group (n=6), a dexamethasone group (n=6), and a GEN1-284s 15 mpk group (n=6). LPS (1 mpk) was intraperitoneally injected 0.5 h after administration. The mice were sacrificed 2 h after the LPS injection, and blood samples were taken. The blood samples were left in EDTA-K2 anticoagulant tubes at room temperature for 20 min and centrifuged at 8000 rpm for 10 min. The plasma was separated and cryopreserved at −80° C. before analysis.
LPS (1 mpk) was intraperitoneally injected 0.5 h after administration. The mice were sacrificed 2 h after the LPS injection, and blood samples were taken. The blood samples were left in EDTA-K2 anticoagulant tubes at room temperature for 20 min and centrifuged at 8000 rpm for 10 min. The plasma was separated and cryopreserved at −80° C. before analysis.
The mice were tested for TNF-α level with ELISA kits, and the inhibitory effect of GEN1-284s on the TNF-α level was evaluated.
According to the instructions for use, a standard curve formula (y=0.0038x+0.1206, R^2=0.9956) was obtained and can be used to calculate detection values.

[3] = DAY 1, individual mice, listed as DEX
[4] = DAY 2, individual mice, listed as DEX
[5] = DAY 3, individual mice, listed as DEX
[6] = DAY 4, individual mice, listed as DEX
[7] = DAY 5, individual mice, listed as DEX

## C[C@@H]1C[C@H]2[C@@H]3CCC4=CC(=O)C=C[C@]4(C)[C@@]3(F)[C@@H](O)C[C@]2(C)[C@@]1(O)C(=O)CO [dexamethasone, Dexamethasone, reference compound]
[1]; DAY 0, individual mice
  overall effect on the skin of psoriasis mice (score): 0
  skin redness in psoriasis mice (score): 0
  skin scaling in psoriasis mice (score): 0
  skin thickening in psoriasis mice (score): 0
[1]; [3]
  overall effect on the skin of psoriasis mice (score): 1.167 (2×) and 0.5 and 1.333 (2×) and 0.8333
  skin redness in psoriasis mice (score): 0.6667 (2×) and 0.1667 and 0.3333 and 0.5 (2×)
  skin scaling in psoriasis mice (score): 0.5 and 0.3333 (2×) and 0.8333 (2×) and 0.1667
  skin thickening in psoriasis mice (score): 0 (5×) and 0.5
[1]; [4]
  overall effect on the skin of psoriasis mice (score): 1.333 and 1 and 0.5 and 0.8333 and 1.667 and 0.6667
  skin redness in psoriasis mice (score): 0.5 (2×) and 0.6667 (2×) and 0.1667 (2×)
  skin scaling in psoriasis mice (score): 0.8333 and 0.3333 and 0 (2×) and 0.6667 and 1
  skin thickening in psoriasis mice (score): 0 (5×) and 0.5
[1]; [5]
  overall effect on the skin of psoriasis mice (score): 2.5 and 3 and 1 and 2 (2×) and 1.667
  skin redness in psoriasis mice (score): 1.167 and 1 and 0.5 (2×) and 0.3333 and 0.6667
  skin scaling in psoriasis mice (score): 1.333 and 1.5 and 0.5 (2×) and 1 and 1.167
  skin thickening in psoriasis mice (score): 0 (2×) and 0.5 (4×)
[1]; [6]
  overall effect on the skin of psoriasis mice (score): 2.333 (2×) and 1.5 and 3.5 and 3.667 and 2.667
  skin redness in psoriasis mice (score): 0.6667 and 0.5 (2×) and 1.167 (2×) and 1.667
  skin scaling in psoriasis mice (score): 1.167 and 1 (2×) and 1.833 and 1.333 and 1.5
  skin thickening in psoriasis mice (score): 0.5 (5×) and 0
[1]; [7]
  overall effect on the skin of psoriasis mice (score): 3.333 and 2.5 and 3.667 and 2.833 (2×) and 3.5
  skin redness in psoriasis mice (score): 1.167 and 1 (2×) and 0.8333 and 0.6667 and 1.5
  skin scaling in psoriasis mice (score): 1.667 (2×) and 1.5 (2×) and 2.333 and 1.333
  skin thickening in psoriasis mice (score): 0.5 (5×) and 0
[2]
  Inhibition rate against LPS-induced TNF-α: 81%
